Key:
NK cells [1] = assay: Immune cell toxicity assays, NK cells; format: cell-based; details: 72 hours of high dose exposure; regardless of IL-2 or co-culture with TILs
Description: (§1) Immune Cell Toxicity Assays. […] Following treatment, samples were stained with anti-CD45, anti-CD3, anti-CD4, anti-CD8, and anti-CD56 antibodies (Table 1), as well as Zombie Green live/dead (Biolegend 423111) and analyzed by flow cytometry as described above. Data were analyzed using FlowJo software version 10.5.3. As an orthogonal measure of viability, CellTiter-Glo was performed on primary T-cells and NK cells.
(§2) CellTiter-Glo luminescent cell viability assay. Cell viability was assessed using the CellTiter-Glo Luminescent Cell Viability assay (Promega, G7571) according to manufacturer's instructions. […] All conditions were tested in triplicate and plates were read on a Tecan Infinite Mplex Microplate Reader.

NK cells [2] = assay: Autophagy staining (CYTO-ID); format: cell-based, human; details: NK cells following ADU-S100 treatment
Description: Autophagy Staining. Autophagy was assessed by vacuole staining to identify autophagolysosomes using the CYTO-ID Autophagy detection kit 2.0 (Enzo ENZ-51031-0050) according to manufacturer's instructions. Briefly, 5×10^5 isolated primary NK cells or TILs were incubated in T-cell growth media (TCGM) with 500 U/mL IL-2, which was refreshed every time the media was changed to ensure proper growth and selection. CLQ from the kit (Enzo 51005-CLQ) was used starting at the recommended initial dose of 10 μM compared with DMSO control. […] The media was collected, and flow cytometry was performed after staining following manufacturer's instructions with CYTO-ID Green Detection Reagent 2.

IRF3 = IRF3 immunofluorescence in PDOTS; format: cell-based, human; details: PDOTS following treatment
Description: PDOTS immunofluorescence and live/dead quantification. Dual labeling was performed by loading microfluidic devices with Nexcelom ViaStain acridine orange/propidium iodide (AO/PI) Staining Solution (Nexcelom, CS2-0106) or 10 μg/mL solution of Hoechst 33342 (Thermo Fisher Scientific) and 1 μg/mL solution of PI (Thermo Fisher Scientific). Following incubation with the dyes (20 minutes at room temperature in the dark for AO/PI or 45 minutes for Hoechst 33342/PI), images were captured using 4× objective of a Nikon Eclipse 80i fluorescence microscope equipped with automated motorized stage (Proscan), Z-stack (Prior), and Zyla 5.5 sCMOS camera (Andor). Image capture and analysis were performed using NIS-Elements AR software package. Live and dead cell quantitation was performed by measuring total cell area of each dye. For additional immunofluorescence studies, PDOTS were washed with PBS and blocked with FcR blocking reagent (Miltenyi) for 30 minutes at room temperature. Directly conjugated antibodies CD326 EpCAM-AlexaFluor647 (clone 9C4), CD45-AlexaFluor647 (HI30) (BioLegend), and mesothelin-PE (clone REA1057, Miltenyi) were diluted 1:50 in 10 μg/mL solution of Hoechst 33342 (Thermo Fisher Scientific) in PBS and loaded into microfluidic devices for 1-hour incubation at room temperature in the dark. Spheroids were washed twice with PBS with 0.1% Tween20 followed by PBS. […]

MPM tumor cell lines = assay: 3D vascular model of NK cell migration; format: cell-based, human; details: presence and absence of the vascular barrier
Description: 3D vascular model. To generate the tumor-vascular model, H226 spheroids were mixed with collagen rat tail hydrogel (2.5 mg/ml) and injected into the center gel region of the 3D microfluidic chamber (10-15 μL per each microfluidic chamber). After incubation for 30 minutes at 37° C. in sterile humidity chambers, the side wall of one flanked channel (media channel) was coated with a 150 μg/ml collagen solution in PBS to allow for better adhesion of eCs to the channel. After 15 mins, the channel was washed once with media. To create the 3D vessel, 25 μL cell suspension of 3×10^6 cells/ml human umbilical vein endothelial cells (HUVECs; C2519AS, Lonza) were injected in the media channel coated with collagen. The channel was rotated twice to create a confluent hollow-lumen 3D vessel. To allow the cells to attach to the media-gel interface and form a monolayer, the chip was incubated with cells face down for 15 mins. Next, 50 μL cell suspension was reinjected, and the chip was flipped to cover the upper part of the 3D vascular channel. After 90 mins of incubation in the humidity chamber at 37° C., cell culture media was gently added to both channels and further incubated to form a confluent monolayer. After vessel formation, NK cells (labelled with cell tracker) were added to the 3D vessel at 2:1 E:T ratio. […] NK cell migration+/−vessel was quantified at 24 hours. Image capture and analysis was performed using a fluorescence confocal microscope and processing software. The 3D vascular channels were rinsed in PBS and fixed with 4% PFA for 15 min at room temperature. Cell membranes were permeabilized with 0.1% Triton X-100 for 5 min at room temperature and washed twice with PBS. HUVEC cells were stained for F-actin with green phalloidin (Thermo Fisher Scientific A12379) and Hoechst 33342. Images were captured on a Nikon Eclipse 80i fluorescence microscope equipped with Z-stack (Prior) and CoolSNAP CCD camera (Roper Scientific).

T-cells = assay: Immune cell toxicity assays, T-cells; format: cell-based, human
Description: as §1, §2

granzyme B = assay: Granzyme B ELISA, NK / MPM co-culture; format: cell-based, human; details: only in co-culture with MPM cells expressing STING
Description: Cytokine analysis. CXCL10 ELISA (R&D Systems DIP100) and granzyme B ELISA (R&D systems DY008) were performed according to manufacturer's instructions on conditioned media collected from cell culture. Cytokine analysis of conditioned media after 3 days of explant (S1) culture (FIG. 9B) utilized the MSD U-PLEX Viral Combo 1 assay (Hu: K15343K-2), which was performed according to manufacturer's instructions.

Compound: Nc1ncnc2c1ncn2[C@@H]1O[C@@H]2COP(=O)([S-])O[C@@H]3[C@H](O)[C@@H](COP([O-])(=S)O[C@H]2[C@H]1O)O[C@H]3n1cnc2c(N)ncnc21.[Na+].[Na+] (stereo partly shown) [ADU-S100]
- cytotoxicity in human NK cells (NK cells [1]): no significant cytotoxicity
- autophagic flux (NK cells [2]): elevated
- IRF3 localisation (IRF3): nuclear translocation
- NK cell migration (MPM tumor cell lines): enhanced NK cell migration
- cytotoxicity to T-cells by flow cytometry (T-cells; MPM tumor explants, increased from 24 to 72 hours): cytotoxic
- cytotoxicity in T-cells purified from peripheral blood (T-cells; with or without BCMA CAR): dose-dependent cytotoxicity
- granzyme release by NK cells (granzyme B): enhanced

Source: patent US20260183396A1, “CXCR3 OVEREXPRESSION IN CAR-NK CELLS PRIMES MIGRATION/HOMING INTO THE TUMOR MICROENVIRONMENT” (DANA-FARBER CANCER INSTITUTE, INC., priority 2022, published 2026)
